US12605350B2, “Composition for preventing, ameliorating, or treating disease caused by nitration of tyrosine in proteins comprising tyrosine as effective component” (INDUSTRY-ACADEMIC COOPERATION FOUNDATION GYEONGSANG …, priority 2020, dated 2026)

Assays:
[1] = tested on: high-fat diet mouse model of type 2 diabetes; test: glucose tolerance test; type: in vivo; conditions: HFD+L-Tyr vs HFD; 16 hours fasting, glucose 2 g per 1 kg i.p., 30-120 minutes
Description: Twenty-seven C57BL/6 male mice (3-week old) were acclimated to the breeding condition for 1 week. […] Blood glucose was measured every week.
D-glucose was dissolved in 1×PBS to prepare 40% D-glucose solution. Blood glucose of a mouse, which has been subjected to fasting for 16 hours, was measured, and, for having intraperitoneal injection of glucose in an amount of 2 g per 1 kg bodyweight, the animal was intraperitoneally injected with the glucose solution according to the following Formula (1). Glucose injection amount(μl)=Bodyweight(g)×5 Formula (1)
For example, for a mouse with bodyweight of 45 g, 225 μl of 40% glucose solution were injected. After the intraperitoneal injection of glucose solution, blood glucose was measured at time points of 30, 60, 90 and 120 minutes.

IL-1β = IL-1β gene expression in kidney tissues (quantitative real-time PCR), renal ischemia and reperfusion; type: in vivo, mouse; conditions: L-tyrosine 100 mg/kg oral once a day for 4 days, 24 hours after ischemia and reperfusion
Description: C57BL/6 male mouse (23 to 25 g, KOATECH, South Korea) was allowed to have free access to diets and water in sterile breeding room with constant temperature and humidity. The animals were divided into 3 test groups, i.e., 1) Control group (Sham), 2) Renal ischemia having treatment with prepared solvent and induced reperfusion group (CMC+IR), and 3) Renal ischemia having treatment with L-tyrosine and induced reperfusion group (L-Tyr+IR).
L-Tyrosine (100 mg/kg) was suspended in 0.5% CMC (carboxymethyl cellulose). The animal was orally administered, once a day for 4 days, with L-tyrosine or the prepared solvent CMC. Thirty minutes after the oral administration on Day 4, renal ischemia was caused. Specifically, the animal abdomen was cut and renal pedicles at both sides were clamped using a Muller atraumatic vascular clamp to cause renal ischemia. After 25 minutes of blood ischemia, the clamp was removed followed by reperfusion. The control group (Sham) received the same operational procedures as above except the ischemia using clamp. […]
According to Trizol method, total RNA was extracted from kidney tissues, and cDNA was synthesized by using Revert Aid Reverse Transcription System (ThermoFisher). Quantitative PCR was carried out with CFX Connect Real-Time PCR system (Bio-Rad) by using iQ SYBR Green Super mix (Bio-Rad). […]

[2] = tested on: chronic immobilization stress group (STR); test: TST (tail suspension test) after chronic immobilization stress; type: in vivo, mouse; conditions: tyrosine-diet (181.2 mg/kg) vs normal diet, p<0.05
Description: The animal models were divided into two groups (i.e., normal group and stress group). The animal of stress group was individually brought by force to a restrainer for 2 hours every day (i.e., between 2 PM and 4 PM) so that it was applied with chronic immobilization stress for 15 days. Change in bodyweight and food intake amount were measured every other day. The normal group and stress group were divided again into a normal diet group and a tyrosine-supplemented diet group (181.2 mg/kg), and then fed. For TST (tail suspension test), the mouse was individually hung in a box with horizontal bar. To measure the immobile duration, animal movement was followed for 6 minutes.

[3] = tested on: chronic immobilization stress group (STR); test: SPT (sucrose preference test) after chronic immobilization stress; type: in vivo, mouse; conditions: tyrosine diet (181.2 mg/kg) compared to normal diet, p<0.01
Description: The animal models were divided into two groups (i.e., normal group and stress group). The animal of stress group was individually brought by force to a restrainer for 2 hours every day (i.e., between 2 PM and 4 PM) so that it was applied with chronic immobilization stress for 15 days. Change in bodyweight and food intake amount were measured every other day.
The normal group and stress group were divided again into a normal diet group and a tyrosine-supplemented diet group (181.2 mg/kg), and then fed.
For SPT (sucrose preference test), 0.1 M sucrose and water were provided for 48 hours so that the animals are habituated with them. After that, none of 0.1 M sucrose and water was provided for 24 hours, and then 0.1 M sucrose and water were provided again for 6 hours. Then, 0.1 M sucrose and water were moved to different positions for 3 hours.
After that, consumption amount of sucrose and water was measured, and the sugar preference was calculated in terms of the ratio of provided sucrose compared to total consumption amount.

[4] = tested on: chronic immobilization stress group (STR); test: corticosterone amount in plasma (ELISA), chronic immobilization stress; type: in vivo, mouse; conditions: tyrosine diet (181.2 mg/kg) compared to normal diet, p<0.05
Description: Each of the blood and PFC sample was obtained from a mouse anesthetized with CO2 gas. Specifically, mouse blood was collected between 9 AM and 11 AM and stored in a K3EDTA-coated vacuum container. Plasma was obtained by centrifuge for 10 minutes at 4° C., 500×g. PFC sample was weighed first, and, after lysis of the tissues by using Bullet homogenizer, subjected to centrifuge for 20 minutes at 4° C., 12,000 rpm. Thus-obtained plasma and tissue lysate were kept at −80° C. until use. After that, the animal was sacrificed, and a change in corticosterone amount in plasma was examined. ROS/RNS in plasma and PFC was also examined. The corticosterone amount was examined using an ELISA kit (Cayman) by following the manufacturer's protocol, and ROS/RNS was also examined using an ROS/RNS assay kit (Cell Biolabs, San Diego, CA, USA) by following the manufacturer's protocol. The animal models were divided into two groups (i.e., normal group and stress group). The animal of stress group was individually brought by force to a restrainer for 2 hours every day (i.e., between 2 PM and 4 PM) so that it was applied with chronic immobilization stress for 15 days. Change in bodyweight and food intake amount were measured every other day. The normal group and stress group were divided again into a normal diet group and a tyrosine-supplemented diet group (181.2 mg/kg), and then fed.

[5] = tested on: chronic immobilization stress group (STR); test: amount of glutamate, glutamine, tyrosine and GABA in PFC by LC-MS/MS; type: in vivo, mouse; conditions: stress group fed tyrosine diet, vs normal group
From the text: The Amount of amino acids (glutamate, glutamine, tyrosine) and GABA in the PFC was quantified by liquid chromatography analysis (LC-MS/MS). PFC tissues were lysed first, and the tissue supernatant was collected and diluted with internal reference (L-Glu-d5) and mobile phase. The diluted sample was divided into 5 samples and injected to LC-MS/MS system (Agilent 6460). As for the column, SeQuant ZIC®-HILIC column (2.1×100 mm, 3.5 μm, 100 Å) was used, and, as a mobile phase, acetonitrile containing 0.1% formic acid was used, and the separation was made by using concentration gradient. For detecting the amino acids, multiple reaction monitoring and detection method was employed (m/z of Glu: 148→84, m/z of Gln: 147→84, m/z of GABA: 104→87, and m/z of internal reference: 153→88).

Compound | blood glucose, glucose tolerance test [1] | gene expression of IL-1β in kidney tissues (IL-1β) | immobile duration [2] | sugar preference [3] | corticosterone amount in plasma [4] | amount of GABA in PFC [5] | amount of glutamate in PFC [5] | amount of glutamine in PFC [5] | amount of tyrosine in PFC [5]
N[C@@H](Cc1ccc(O)cc1)C(=O)O [L-tyrosine] | statistically significant decrease in blood glucose amount | suppressed |  |  |  |  |  |  | 
N[C@@H](Cc1ccc(O)cc1)C(=O)O [tyrosine] |  |  | statistically significant decrease in immobile duration | statistically significant increase in the sugar preference | statistically significant decrease in corticosterone amount | higher than the amount level of the normal group | higher than the amount level of the normal group | higher than the amount level of the normal group | higher than the amount level of the normal group
